In patent US20120122924A1, “NAMPT INHIBITORS” (ABBOTT LABORATORIES, priority 2010, published 2012) one finds IC50 data, which are given here for 34 compounds.

For this test, the target named is recombinant, human, C-terminally-His tagged NAMPT (Homo sapiens, UniProt P43490). As to the kind of experiment: Time-Resolved Fluorescence Resonance Energy Transfer (TR-FRET) binding assay of NAMPT. The settings on record: 6.8 nM NAMPT, 200 nM probe (Oregon Green 488-conjugated APO866), 1 nM Tb-anti-His antibody, 2-3 hours. The protocol:
Determination of the utility of compounds having Formula (I) as binders to and inhibitors of NAMPT was performed using a Time-Resolved Fluorescence Resonance Energy Transfer (TR-FRET) binding assay.
Time-Resolved Fluorescence Resonance Energy Transfer (TR-FRET) Binding Assay of NAMPT
The assay was carried out in 18 uL low volume plates (Owens Corning) in reaction buffer (50 mM HEPES (NaOH), pH 7.5, 100 mM NaCl, 10 mM MgCl2, 1 mM DTT, 1% Glycerol) using 6.8 nM recombinant, human, C-terminally-His tagged NAMPT, 1 nM Tb-anti-His antibody (Invitrogen, Cat # PV5895), and 200 nM probe (Oregon Green 488-conjugated APO866; A-1251667.0). Plates were covered, and reactions were carried out for 2-3 hours. Plates were read with Envision (Laser Lantha low volume protocol) after 2 to 3 hours. Excitation was carried out at 337 nm, and the ratio of emission of Oregon Green (520 nm) to terbium (492 nm) was determined and used to calculate IC50 values of test compounds.
In general terms: In TR-FRET formats the signal depends on donor and acceptor labels being close together.

Usually IC50 stands for the concentration that inhibits the measured activity by half.

Chain of recombinant, human, C-terminally-His tagged NAMPT (P43490 whole entry): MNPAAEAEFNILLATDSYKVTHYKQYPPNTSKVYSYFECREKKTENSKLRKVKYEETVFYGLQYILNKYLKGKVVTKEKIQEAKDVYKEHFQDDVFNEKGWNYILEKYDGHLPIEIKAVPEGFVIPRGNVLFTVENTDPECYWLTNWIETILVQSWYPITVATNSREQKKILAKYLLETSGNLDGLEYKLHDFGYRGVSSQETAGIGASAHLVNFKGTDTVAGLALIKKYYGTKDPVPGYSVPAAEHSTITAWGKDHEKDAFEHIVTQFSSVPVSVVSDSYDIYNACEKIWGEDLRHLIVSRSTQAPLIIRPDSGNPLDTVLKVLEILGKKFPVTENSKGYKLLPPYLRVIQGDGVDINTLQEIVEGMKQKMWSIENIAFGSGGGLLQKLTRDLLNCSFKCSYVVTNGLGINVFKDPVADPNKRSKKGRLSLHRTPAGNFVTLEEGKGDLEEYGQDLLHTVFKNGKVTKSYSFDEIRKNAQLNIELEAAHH

`O=C(Nc1ccc(NC(=O)N2CCc3ccccc3C2)cc1)C1Cc2ccccc2O1` (racemic) [Example 68, N-{4-[((2R)-2,3-dihydro-1-benzofuran-2-ylcarbonyl)amino]phenyl}-3,4-dihydroisoquinoline-2(1H)-carboxamide and N-{4-[((2S)-2,3-dihydro-1-benzofuran-2-ylcarbonyl)amino]phenyl}-3,4-dihydroisoquinoline-2(1H)-carboxamide]: the IC50 was 4.45 nM.
The figure for `CCC(C)CC(=O)Nc1ccc(NC(=O)N2CCc3ccccc3C2)cc1` (racemic) [Example 69, N-{4-[((3R)-3-methylpentanoyl)amino]phenyl}-3,4-dihydroisoquinoline-2(1H)-carboxamide and N-{4-[((3S)-3-methylpentanoyl)amino]phenyl}-3,4-dihydroisoquinoline-2(1H)-carboxamide] is 6.49 nM; for `O=C(Nc1ccc(NC(=O)N2CCc3ccccc3C2)cc1)C1CCOC1` (racemic) [Example 75, N-{4-[((3R)-tetrahydrofuran-3-ylcarbonyl)amino]phenyl}-3,4-dihydroisoquinoline-2(1H)-carboxamide and N-{4-[((3S)-tetrahydrofuran-3-ylcarbonyl)amino]phenyl}-3,4-dihydroisoquinoline-2(1H)-carboxamide] it is 196 nM.
As for `CC(C)CCNC(=O)c1ccc(NC(=O)N2CCc3ccccc3C2)cc1` [Example 1, N-{4-[(3-methylbutyl)carbamoyl]phenyl}-3,4-dihydroisoquinoline-2(1H)-carboxamide], the IC50 stood at 16.7 nM.
The figure for `O=C(Nc1ccc(C(=O)N2CCN(c3ccccn3)CC2)cc1)N1CCc2ccccc2C1` [Example 2, N-(4-{[4-(pyridin-2-yl)piperazin-1-yl]carbonyl}phenyl)-3,4-dihydroisoquinoline-2(1H)-carboxamide] is 13.2 nM.
The figure for `O=C(NCCCc1ccccc1)c1ccc(NC(=O)N2CCc3cc(F)ccc3C2)cc1` [Example 3, 6-fluoro-N-{4-[(3-phenylpropyl)carbamoyl]phenyl}-3,4-dihydroisoquinoline-2(1H)-carboxamide] is 13.8 nM.
Turning to `O=C(NCCCc1ccccc1)c1ccc(NC(=O)N2CCc3cnccc3C2)cc1` [Example 4, N-{4-[(3-phenylpropyl)carbamoyl]phenyl}-3,4-dihydro-2,6-naphthyridine-2(1H)-carboxamide], the IC50 was determined as 15 nM.
In the case of `CC(C)CCNC(=O)c1ccc(NC(=O)N2CCc3cnccc3C2)cc1` [Example 5, N-{4-[(3-methylbutyl)carbamoyl]phenyl}-3,4-dihydro-2,6-naphthyridine-2(1H)-carboxamide], the IC50 was determined as 15.7 nM.
The value for `CC(C)CCNC(=O)c1ccc(NC(=O)N2CCc3cc(F)ccc3C2)cc1` [Example 6, 6-fluoro-N-{4-[(3-methylbutyl)carbamoyl]phenyl}-3,4-dihydroisoquinoline-2(1H)-carboxamide] was 10.3 nM.
The value for `O=C(NCCCc1ccccc1)c1ccc(NC(=O)N2CCc3ccccc3C2)cc1` [Example 7, N-{4-[(3-phenylpropyl)carbamoyl]phenyl}-3,4-dihydroisoquinoline-2(1H)-carboxamide] was 20.7 nM; that for `O=C(NCc1ccccc1)c1ccc(NC(=O)N2CCc3ccccc3C2)cc1` [Example 8, N-[4-(benzylcarbamoyl)phenyl]-3,4-dihydroisoquinoline-2(1H)-carboxamide] was 23.7 nM.
The value for `O=C(NCCCc1ccccc1)c1ccc(NC(=O)N2CCc3ccccc3C2)nc1` [Example 9, N-{5-[(3-phenylpropyl)carbamoyl]pyridin-2-yl}-3,4-dihydroisoquinoline-2(1H)-carboxamide] was 29.1 nM; that for `CC(C)CCNC(=O)c1ccc(NC(=O)N2CCc3ccccc3C2)nc1` [Example 10, N-{5-[(3-methylbutyl)carbamoyl]pyridin-2-yl}-3,4-dihydroisoquinoline-2(1H)-carboxamide] was 29.4 nM.
In the case of `CC(C)CCn1cc(NC(=O)c2ccc(NC(=O)N3CCc4ccccc4C3)cc2)cn1` [Example 11, N-(4-{[1-(3-methylbutyl)-1H-pyrazol-4-yl]carbamoyl}phenyl)-3,4-dihydroisoquinoline-2(1H)-carboxamide], the half-maximal inhibitory concentration (IC50) is 43.3 nM.
The value for `O=C(NCCc1cccs1)c1ccc(NC(=O)N2CCc3cnccc3C2)cc1` [Example 12, N-(4-{[2-(2-thienyl)ethyl]carbamoyl}phenyl)-3,4-dihydro-2,6-naphthyridine-2(1H)-carboxamide] was 45.2 nM; that for `O=C(NCCc1cccs1)c1ccc(NC(=O)N2CCc3cc(F)ccc3C2)cc1` [Example 13, 6-fluoro-N-(4-{[2-(2-thienyl)ethyl]carbamoyl}phenyl)-3,4-dihydroisoquinoline-2(1H)-carboxamide] was 45.8 nM; that for `O=C(Nc1cnn(Cc2ccccc2)c1)c1ccc(NC(=O)N2CCc3ccccc3C2)cc1` [Example 14, N-{4-[(1-benzyl-1H-pyrazol-4-yl)carbamoyl]phenyl}-3,4-dihydroisoquinoline-2(1H)-carboxamide] was 47.1 nM.
The figure for `O=C(NCCc1ccccc1)c1ccc(NC(=O)N2CCc3ccccc3C2)cc1` [Example 15, N-{4-[(2-phenylethyl)carbamoyl]phenyl}-3,4-dihydroisoquinoline-2(1H)-carboxamide] is 97.6 nM.
The value for `CC(C)CCNC(=O)c1ccc(NC(=O)N2CCc3ccc(F)cc3C2)cc1` [Example 16, 7-fluoro-N-{4-[(3-methylbutyl)carbamoyl]phenyl}-3,4-dihydroisoquinoline-2(1H)-carboxamide] was 171 nM.
Consider `O=C(NCCc1cccs1)c1ccc(NC(=O)N2CCc3ccccc3C2)cc1` [Example 17, N-(4-{[2-(2-thienyl)ethyl]carbamoyl}phenyl)-3,4-dihydroisoquinoline-2(1H)-carboxamide], for which the IC50 stood at 178 nM.
`CC(C)CCNC(=O)c1ccc(NC(=O)N2CCc3ccccc3C2)cn1` [Example 18, N-{6-[(3-methylbutyl)carbamoyl]pyridin-3-yl}-3,4-dihydroisoquinoline-2(1H)-carboxamide]: the IC50 was 178 nM.
On to `O=C(NCCc1cccs1)c1ccc(NC(=O)N2CCc3ccccc3C2)nc1` [Example 19, N-(5-{[2-(2-thienyl)ethyl]carbamoyl}pyridin-2-yl)-3,4-dihydroisoquinoline-2(1H)-carboxamide], for which the IC50 was 195 nM.
The figure for `O=C(NCCCc1ccccc1)c1ccc(NC(=O)N2CCc3ccc(F)cc3C2)cc1` [Example 20, 7-fluoro-N-{4-[(3-phenylpropyl)carbamoyl]phenyl}-3,4-dihydroisoquinoline-2(1H)-carboxamide] is 248 nM.
Turning to `O=C(NCCCc1ccccc1)c1ccc(NC(=O)N2CCc3ccccc3C2)cn1` [Example 21, N-{6-[(3-phenylpropyl)carbamoyl]pyridin-3-yl}-3,4-dihydroisoquinoline-2(1H)-carboxamide], the half-maximal inhibitory concentration (IC50) is 286 nM.
The figure for `O=C(NCCc1cccs1)c1ccc(NC(=O)N2CCc3ccccc3C2)cn1` [Example 22, N-(6-{[2-(2-thienyl)ethyl]carbamoyl}pyridin-3-yl)-3,4-dihydroisoquinoline-2(1H)-carboxamide] is 309 nM; for `O=C(NCCc1cccs1)c1ccc(NC(=O)N2CCc3ccc(F)cc3C2)cc1` [Example 23, 7-fluoro-N-(4-{[2-(2-thienyl)ethyl]carbamoyl}phenyl)-3,4-dihydroisoquinoline-2(1H)-carboxamide] it is 366 nM; for `O=C(NCCCc1ccccc1)c1ccc(NC(=O)N2CCc3ccncc3C2)cc1` [Example 25, N-{4-[(3-phenylpropyl)carbamoyl]phenyl}-3,4-dihydro-2,7-naphthyridine-2(1H)-carboxamide] it is 597 nM.
The figure for `O=C(Cc1ccc(NC(=O)N2CCc3ccccc3C2)cc1)NCCc1cccs1` [Example 26, N-[4-(2-oxo-2-{[2-(2-thienyl)ethyl]amino}ethyl)phenyl]-3,4-dihydroisoquinoline-2(1H)-carboxamide] is 800 nM; for `O=C(Cc1ccc(NC(=O)N2CCc3ccccc3C2)cc1)NCCCc1ccccc1` [Example 27, N-(4-{2-oxo-2-[(3-phenylpropyl)amino]ethyl}phenyl)-3,4-dihydroisoquinoline-2(1H)-carboxamide] it is 1030 nM; for `CC(C)CCNC(=O)c1ccc(NC(=O)N2CCc3ccncc3C2)cc1` [Example 28, N-{4-[(3-methylbutyl)carbamoyl]phenyl}-3,4-dihydro-2,7-naphthyridine-2(1H)-carboxamide] it is 1250 nM.
Take `CC(C)CCNC(=O)Cc1ccc(NC(=O)N2CCc3ccccc3C2)cc1` [Example 29, N-(4-{2-[(3-methylbutyl)amino]-2-oxoethyl}phenyl)-3,4-dihydroisoquinoline-2(1H)-carboxamide]: the IC50 was determined as 1500 nM.
Turning to `O=C(NCCc1cccs1)c1ccc(NC(=O)N2CCc3ccncc3C2)cc1` [Example 30, N-(4-{[2-(2-thienyl)ethyl]carbamoyl}phenyl)-3,4-dihydro-2,7-naphthyridine-2(1H)-carboxamide], the IC50 came to 2110 nM.
The figure for `CC(C)CCC(=O)Nc1ccc(NC(=O)N2CCc3ccccc3C2)cc1` [Example 31, N-{4-[(4-methylpentanoyl)amino]phenyl}-3,4-dihydroisoquinoline-2(1H)-carboxamide] is 6.16 nM; for `O=C(CCCc1ccccc1)Nc1ccc(NC(=O)N2CCc3ccccc3C2)cc1` [Example 32, N-{4-[(4-phenylbutanoyl)amino]phenyl}-3,4-dihydroisoquinoline-2(1H)-carboxamide] it is 12 nM.
